5 compounds from ChEMBL document CHEMBL1201862, “PubChem BioAssay data set” (2004) can be followed below.

The nature of one experiment: cells. The experiment is classed as functional, cell-based.
Experiment [1] can be described thus: ATP-based viability loss in HeLa cells – cell-based, CellTiter-Glo luminescence, dry powder, set 2, cytotoxicity control, dose response (AID 720593). It is filed as functional. In general terms: In ATP-based viability assays light output follows the ATP content of the culture.
Experiment [2] concerns the target T1, Serine/threonine-protein phosphatase (Candida dubliniensis (strain CD36 / CBS 7987 / NCPF 3949 / NRRLY-17841) (Yeast), UniProt B9W6M3).
T1 sequence (B9W6M3 whole entry): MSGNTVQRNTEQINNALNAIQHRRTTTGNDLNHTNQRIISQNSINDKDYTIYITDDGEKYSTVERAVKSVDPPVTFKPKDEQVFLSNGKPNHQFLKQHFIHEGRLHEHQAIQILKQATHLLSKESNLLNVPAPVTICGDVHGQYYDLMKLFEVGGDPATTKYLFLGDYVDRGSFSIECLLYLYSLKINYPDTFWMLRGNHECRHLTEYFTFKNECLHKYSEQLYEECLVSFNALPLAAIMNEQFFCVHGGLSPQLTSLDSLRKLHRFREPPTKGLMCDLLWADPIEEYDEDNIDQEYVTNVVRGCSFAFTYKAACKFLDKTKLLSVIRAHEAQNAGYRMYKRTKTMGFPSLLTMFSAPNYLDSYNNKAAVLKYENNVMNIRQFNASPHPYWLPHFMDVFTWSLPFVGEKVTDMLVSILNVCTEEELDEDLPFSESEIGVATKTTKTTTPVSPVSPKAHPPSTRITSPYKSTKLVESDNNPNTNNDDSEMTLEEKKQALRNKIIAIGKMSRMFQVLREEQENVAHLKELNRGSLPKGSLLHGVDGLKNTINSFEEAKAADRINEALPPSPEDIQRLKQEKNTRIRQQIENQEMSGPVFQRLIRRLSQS
Kind of experiment: blockers of CaCl2-induced CDRE-lacZ signaling – S. cerevisiae, luminescence, secondary, dose response (AID 2388).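 Note: yeast reporter cells carrying a calcineurin-responsive lacZ construct stimulated with calcium chloride; luminescent beta-galactosidase reporter signal in whole cells rather than isolated phosphatase activity; potency for inhibition where a drop in reporter signal means calcineurin blockade.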 It is filed as functional, cell-based.

Experiment [3] addresses ATP-dependent molecular chaperone HSP82 (Candida albicans (strain WO-1) (Yeast), UniProt C4YTQ8). Kind of experiment: steroid-induced GRE reporter decrease in yeast – S. cerevisiae, luminescence, Hsp90 inhibitor project, dose response (AID 2400).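 Note: beta-galactosidase luminescence from glucocorticoid response element reporter as proxy for Hsp90 function; inhibitor potency where signal loss means Hsp90 inhibition.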 The experiment is classed as functional, cell-based.
For experiment [4], the target named is Protein-tyrosine kinase 2-beta (Homo sapiens, UniProt Q14289).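 Note: potency of inhibitors of PYK2 kinase phosphorylation of poly-GT substrate.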
Experiment [5] in a line: viability of PTEN-deleted HCT116 cells – cell-based, HCT116 PTEN knockout, dose response (AID 1047).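 Note: HCT116 colon tumor cells with PTEN knocked out; cells exposed to compound for 60 hours before readout; potency for loss of cell viability measured by luminescence.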 The experiment is classed as functional.
The next experiment has as its system Vero. Kind of experiment: viability of Vero cells under compound – cytotoxicity control for flavivirus capping enzyme inhibitors (AID 588742). The experiment is classed as functional. To be noted: Chlorocebus sabaeus.
Experiment [6] in a line: non-specific 3'UTR reporter inhibition in Clone20-Shn3RL – cell-based, Renilla luciferase, cherry-picked, counter-screen for Shn3 inhibitor project, dose response (AID 624133). The experiment is classed as functional. (The purpose of a counterscreen is to sort out artefacts and off-target activity.)
For another experiment, the system named is HEK293. Briefly: membrane integrity loss in HEK cells – cell-based, fluorescence, cytotoxicity control for IDE activator project, dose response (AID 588440).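 Note: cytotoxicity by LDH release measuring loss of membrane integrity.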 It is filed as functional. To be noted: Homo sapiens.
Experiment [7] deals with Ribosomal protein S6 kinase alpha-3 (Homo sapiens, UniProt P51812). The experiment is classed as functional.
Experiment [8] has as its target Rho-associated protein kinase 1 (Homo sapiens, UniProt Q13464). It is filed as functional.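 Note: measured within a broad kinome-wide panel profiling many kinases.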
Experiment [9] addresses T2, Receptor-type tyrosine-protein kinase FLT3 (Homo sapiens, UniProt P36888).
T2 sequence (P36888 whole entry): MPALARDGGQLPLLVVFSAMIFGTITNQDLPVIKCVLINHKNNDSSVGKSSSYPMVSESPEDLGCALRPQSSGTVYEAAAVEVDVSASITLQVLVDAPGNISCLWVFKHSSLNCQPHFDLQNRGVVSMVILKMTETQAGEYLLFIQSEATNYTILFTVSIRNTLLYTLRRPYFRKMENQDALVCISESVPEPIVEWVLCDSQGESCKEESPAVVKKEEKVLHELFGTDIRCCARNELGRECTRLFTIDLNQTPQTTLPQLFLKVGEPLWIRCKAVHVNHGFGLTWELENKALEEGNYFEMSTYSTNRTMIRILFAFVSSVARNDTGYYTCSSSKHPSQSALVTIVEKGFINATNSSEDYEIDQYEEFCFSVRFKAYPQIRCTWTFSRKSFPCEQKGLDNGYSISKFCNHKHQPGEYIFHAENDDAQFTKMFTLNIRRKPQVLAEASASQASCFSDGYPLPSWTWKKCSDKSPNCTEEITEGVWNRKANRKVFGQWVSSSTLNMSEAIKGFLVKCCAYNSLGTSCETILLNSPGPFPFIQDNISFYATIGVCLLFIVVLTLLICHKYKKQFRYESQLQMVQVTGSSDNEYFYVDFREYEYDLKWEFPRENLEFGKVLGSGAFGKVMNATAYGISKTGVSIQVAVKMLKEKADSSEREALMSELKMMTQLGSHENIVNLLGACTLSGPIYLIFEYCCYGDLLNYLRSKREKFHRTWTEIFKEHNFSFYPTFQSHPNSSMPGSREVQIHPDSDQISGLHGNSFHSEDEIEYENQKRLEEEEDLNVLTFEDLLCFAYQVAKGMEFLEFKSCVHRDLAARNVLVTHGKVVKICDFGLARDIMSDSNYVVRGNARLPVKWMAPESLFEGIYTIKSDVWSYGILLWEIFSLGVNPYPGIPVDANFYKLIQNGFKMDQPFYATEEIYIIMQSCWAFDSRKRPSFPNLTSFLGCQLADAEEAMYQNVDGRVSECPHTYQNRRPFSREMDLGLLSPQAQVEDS
It is filed as functional.

The target of experiment [10] is Mitogen-activated protein kinase 9 (Homo sapiens, UniProt P45984). It is filed as functional.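 Note: value from a kinome panel profiling assay, MAPK9 panel entry.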
Experiment [11] deals with Protein kinase C theta type (Homo sapiens, UniProt Q04759). Briefly: Navigating the Kinome. Panel member name: PRKCQ. The experiment is classed as functional.
In experiment [12] the target is Serine/threonine-protein kinase TAO1 (Homo sapiens, UniProt Q7L7X3). The experiment is classed as functional.
Experiment [13] addresses Dual specificity protein kinase CLK2 (Homo sapiens, UniProt P49760). The experiment is classed as functional.
Experiment [14] deals with Insulin-like growth factor 1 receptor (Homo sapiens, UniProt P08069). Kind of experiment: Navigating the Kinome. Panel member name: IGF1R. It is filed as functional.
Experiment [15] has as its target Mitogen-activated protein kinase 14 (Homo sapiens, UniProt Q16539). It is filed as functional.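 Note: part of a kinome-wide panel, MAPK14 entry.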
Experiment [16] has as its target 5'-AMP-activated protein kinase catalytic subunit alpha-1 (Homo sapiens, UniProt Q13131). It is filed as functional.
Experiment [17] concerns the target Calcium/calmodulin-dependent protein kinase type II subunit alpha (Homo sapiens, UniProt Q9UQM7). Kind of experiment: Navigating the Kinome. Panel member name: CAMK2A. It is filed as functional.
Experiment [18] deals with Mast/stem cell growth factor receptor Kit (Homo sapiens, UniProt P10721). It is filed as functional.
Experiment [19] has as its target Serine/threonine-protein kinase Nek2 (Homo sapiens, UniProt P51955). The experiment is classed as functional.

Activity calls are given as the source filed them. Bounds are passed on as bounds.

What is called EC50 is the concentration that produces a half-maximal response. As a reminder, the AC50 is the concentration at which the activity in the assay is half-maximal. As a reminder, the IC50 is the concentration that inhibits the measured activity by half. In general, CC50 refers to the concentration at which the toxic effect on the cells reaches its halfway point. One may read the Ki as a measure of affinity in units of concentration, obtained from inhibition or displacement. The term pKi denotes the negative decadic logarithm of the Ki, by convention in mol/L.

Chain of Mitogen-activated protein kinase 14 (Q16539 whole entry): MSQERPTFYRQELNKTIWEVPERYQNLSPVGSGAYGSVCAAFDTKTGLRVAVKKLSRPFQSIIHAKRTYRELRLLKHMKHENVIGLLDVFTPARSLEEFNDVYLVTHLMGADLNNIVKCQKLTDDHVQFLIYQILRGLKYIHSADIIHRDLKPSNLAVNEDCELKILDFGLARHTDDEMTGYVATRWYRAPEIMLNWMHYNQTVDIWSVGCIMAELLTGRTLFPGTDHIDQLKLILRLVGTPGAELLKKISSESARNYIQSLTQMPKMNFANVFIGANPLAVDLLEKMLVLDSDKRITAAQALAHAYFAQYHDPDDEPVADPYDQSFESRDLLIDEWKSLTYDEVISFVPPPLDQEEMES
Chain of Dual specificity protein kinase CLK2 (P49760 whole entry): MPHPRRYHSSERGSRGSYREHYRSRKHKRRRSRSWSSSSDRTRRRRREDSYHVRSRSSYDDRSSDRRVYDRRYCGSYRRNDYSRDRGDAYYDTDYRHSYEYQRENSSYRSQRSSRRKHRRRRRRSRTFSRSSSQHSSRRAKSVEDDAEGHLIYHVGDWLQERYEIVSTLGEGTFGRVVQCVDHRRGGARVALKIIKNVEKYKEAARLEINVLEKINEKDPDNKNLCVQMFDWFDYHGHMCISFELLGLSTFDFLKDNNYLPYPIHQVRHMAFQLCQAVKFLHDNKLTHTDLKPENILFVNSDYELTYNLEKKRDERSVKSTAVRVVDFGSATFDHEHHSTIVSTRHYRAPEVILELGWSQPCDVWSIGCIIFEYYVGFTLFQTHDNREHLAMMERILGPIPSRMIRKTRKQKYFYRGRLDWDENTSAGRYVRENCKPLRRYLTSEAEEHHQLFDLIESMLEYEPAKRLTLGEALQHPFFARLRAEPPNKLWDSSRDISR
Chain of Mitogen-activated protein kinase 9 (P45984 whole entry): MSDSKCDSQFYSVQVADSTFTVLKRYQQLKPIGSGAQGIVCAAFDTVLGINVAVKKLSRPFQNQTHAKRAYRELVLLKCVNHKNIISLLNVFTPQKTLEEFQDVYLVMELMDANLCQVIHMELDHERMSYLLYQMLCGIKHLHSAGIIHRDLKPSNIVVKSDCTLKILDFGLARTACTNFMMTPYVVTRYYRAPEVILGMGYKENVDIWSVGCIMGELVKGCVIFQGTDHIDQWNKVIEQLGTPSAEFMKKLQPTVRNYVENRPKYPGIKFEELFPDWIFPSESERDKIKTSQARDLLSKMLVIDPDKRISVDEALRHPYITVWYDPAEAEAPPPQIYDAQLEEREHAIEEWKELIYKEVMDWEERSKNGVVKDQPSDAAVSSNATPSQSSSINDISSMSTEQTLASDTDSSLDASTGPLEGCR
Chain of Rho-associated protein kinase 1 (Q13464 whole entry): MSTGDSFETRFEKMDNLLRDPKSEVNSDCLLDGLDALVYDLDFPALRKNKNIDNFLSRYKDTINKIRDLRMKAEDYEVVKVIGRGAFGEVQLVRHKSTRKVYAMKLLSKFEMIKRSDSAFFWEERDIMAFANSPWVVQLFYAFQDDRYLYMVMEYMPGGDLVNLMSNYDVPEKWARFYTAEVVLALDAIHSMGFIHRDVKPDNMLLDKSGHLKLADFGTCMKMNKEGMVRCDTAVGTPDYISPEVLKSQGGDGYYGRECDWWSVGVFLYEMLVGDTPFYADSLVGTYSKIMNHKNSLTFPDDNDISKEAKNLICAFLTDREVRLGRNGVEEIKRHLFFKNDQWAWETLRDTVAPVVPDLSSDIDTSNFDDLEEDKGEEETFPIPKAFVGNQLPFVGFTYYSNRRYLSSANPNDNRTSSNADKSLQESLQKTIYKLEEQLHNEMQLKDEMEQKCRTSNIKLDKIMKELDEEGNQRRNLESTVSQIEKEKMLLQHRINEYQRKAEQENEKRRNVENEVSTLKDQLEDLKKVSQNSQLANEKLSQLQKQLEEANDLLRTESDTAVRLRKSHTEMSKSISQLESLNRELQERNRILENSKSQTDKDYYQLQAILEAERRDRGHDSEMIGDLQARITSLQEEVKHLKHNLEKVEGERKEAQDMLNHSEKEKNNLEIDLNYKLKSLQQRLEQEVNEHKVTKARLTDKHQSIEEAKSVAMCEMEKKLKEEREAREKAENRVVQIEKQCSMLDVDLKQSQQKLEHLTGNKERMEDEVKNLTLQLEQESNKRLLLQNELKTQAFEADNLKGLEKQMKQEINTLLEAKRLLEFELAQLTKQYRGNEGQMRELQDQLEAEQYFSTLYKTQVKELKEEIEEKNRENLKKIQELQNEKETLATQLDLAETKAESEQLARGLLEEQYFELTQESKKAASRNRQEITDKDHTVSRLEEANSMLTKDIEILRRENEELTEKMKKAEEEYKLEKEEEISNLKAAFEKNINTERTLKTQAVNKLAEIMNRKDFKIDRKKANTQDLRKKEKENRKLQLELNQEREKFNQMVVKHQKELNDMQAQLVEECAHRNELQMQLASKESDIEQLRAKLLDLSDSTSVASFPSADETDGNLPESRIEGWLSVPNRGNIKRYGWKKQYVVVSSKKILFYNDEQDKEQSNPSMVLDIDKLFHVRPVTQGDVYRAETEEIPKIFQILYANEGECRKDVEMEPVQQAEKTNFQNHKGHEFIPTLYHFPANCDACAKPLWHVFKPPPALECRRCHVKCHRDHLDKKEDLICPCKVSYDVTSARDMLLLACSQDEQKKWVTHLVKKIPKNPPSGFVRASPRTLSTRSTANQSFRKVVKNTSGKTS
Chain of Protein kinase C theta type (Q04759 whole entry): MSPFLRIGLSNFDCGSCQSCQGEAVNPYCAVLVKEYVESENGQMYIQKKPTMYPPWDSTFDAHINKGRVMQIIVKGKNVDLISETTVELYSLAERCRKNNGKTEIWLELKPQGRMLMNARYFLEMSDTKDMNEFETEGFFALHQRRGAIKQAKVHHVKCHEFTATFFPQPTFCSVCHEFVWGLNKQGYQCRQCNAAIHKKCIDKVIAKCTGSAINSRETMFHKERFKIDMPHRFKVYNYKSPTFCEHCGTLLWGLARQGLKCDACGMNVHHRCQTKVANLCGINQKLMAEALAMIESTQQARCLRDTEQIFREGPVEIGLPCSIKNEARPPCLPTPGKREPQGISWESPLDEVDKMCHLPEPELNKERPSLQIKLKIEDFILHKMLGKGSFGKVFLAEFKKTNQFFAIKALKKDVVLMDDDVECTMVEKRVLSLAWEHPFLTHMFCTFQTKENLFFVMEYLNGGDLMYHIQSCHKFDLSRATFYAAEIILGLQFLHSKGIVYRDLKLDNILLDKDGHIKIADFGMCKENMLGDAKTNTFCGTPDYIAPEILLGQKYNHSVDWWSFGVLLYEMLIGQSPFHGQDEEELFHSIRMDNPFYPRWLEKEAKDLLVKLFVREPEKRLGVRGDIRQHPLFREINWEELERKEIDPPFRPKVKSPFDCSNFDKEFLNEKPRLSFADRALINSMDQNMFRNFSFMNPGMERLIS
Chain of 5'-AMP-activated protein kinase catalytic subunit alpha-1 (Q13131 whole entry): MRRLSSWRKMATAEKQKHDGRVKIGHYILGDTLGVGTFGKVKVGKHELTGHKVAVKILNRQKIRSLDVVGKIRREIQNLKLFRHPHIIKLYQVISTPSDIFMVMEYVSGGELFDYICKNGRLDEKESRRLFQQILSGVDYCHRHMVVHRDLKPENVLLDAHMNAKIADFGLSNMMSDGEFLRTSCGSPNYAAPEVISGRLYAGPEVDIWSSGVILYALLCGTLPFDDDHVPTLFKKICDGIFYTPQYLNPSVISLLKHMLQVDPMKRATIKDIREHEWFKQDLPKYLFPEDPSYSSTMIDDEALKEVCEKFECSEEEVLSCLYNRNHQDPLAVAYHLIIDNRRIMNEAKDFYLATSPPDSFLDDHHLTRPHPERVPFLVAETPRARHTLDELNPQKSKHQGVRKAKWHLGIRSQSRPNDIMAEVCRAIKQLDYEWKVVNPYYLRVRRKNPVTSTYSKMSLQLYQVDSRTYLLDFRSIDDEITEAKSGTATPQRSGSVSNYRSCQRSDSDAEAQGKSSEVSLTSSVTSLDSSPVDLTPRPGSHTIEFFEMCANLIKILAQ
Chain of Calcium/calmodulin-dependent protein kinase type II subunit alpha (Q9UQM7 whole entry): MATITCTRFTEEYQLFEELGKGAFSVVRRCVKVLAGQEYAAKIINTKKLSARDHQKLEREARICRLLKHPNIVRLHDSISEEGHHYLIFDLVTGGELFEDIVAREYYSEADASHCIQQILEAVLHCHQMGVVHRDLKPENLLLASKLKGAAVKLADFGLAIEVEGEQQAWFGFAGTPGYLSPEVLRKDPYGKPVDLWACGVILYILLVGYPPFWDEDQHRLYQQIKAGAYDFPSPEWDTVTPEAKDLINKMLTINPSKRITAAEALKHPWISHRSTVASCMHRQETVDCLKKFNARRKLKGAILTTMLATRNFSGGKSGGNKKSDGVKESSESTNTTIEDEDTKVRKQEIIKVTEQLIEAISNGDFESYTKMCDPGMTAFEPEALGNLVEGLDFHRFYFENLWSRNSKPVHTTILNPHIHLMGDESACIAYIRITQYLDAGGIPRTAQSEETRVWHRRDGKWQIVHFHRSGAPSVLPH
Chain of Serine/threonine-protein kinase Nek2 (P51955 whole entry): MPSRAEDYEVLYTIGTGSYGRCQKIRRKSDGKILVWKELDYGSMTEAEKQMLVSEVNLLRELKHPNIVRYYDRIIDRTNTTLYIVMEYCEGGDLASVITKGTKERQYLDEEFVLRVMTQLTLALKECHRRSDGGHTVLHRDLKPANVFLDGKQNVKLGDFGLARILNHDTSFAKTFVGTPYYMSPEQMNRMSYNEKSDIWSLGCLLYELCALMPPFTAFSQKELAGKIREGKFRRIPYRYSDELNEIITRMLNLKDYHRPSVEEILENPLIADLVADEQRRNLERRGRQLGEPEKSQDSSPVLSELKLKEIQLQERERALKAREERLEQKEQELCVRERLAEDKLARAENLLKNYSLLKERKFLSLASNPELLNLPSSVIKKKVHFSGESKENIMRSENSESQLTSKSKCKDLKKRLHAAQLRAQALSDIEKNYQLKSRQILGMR

As to `CC(C)CC(=O)NC(c1cccs1)c1ccc2cccnc2c1O` (configuration not stated), the results for the EC50 (in “cells”; in experiment [2]; in experiment [3]) were 6.65 µM (active), > 180 µM (inactive) and > 150 µM (inactive), respectively. In addition, the AC50 in [1] is 20.3 µM (active).

As to `CCOC(=O)c1ccc(NC2=CC(=O)C(=O)c3ccccc32)cc1`, the IC50 in [4] was > 69.5 µM (not active). The EC50 in experiment [5] was 15.5 µM (active). Moreover, in the experiment on Vero, the CC50 was 22.3 µM (active).

`OC(CNCCC1C=Nc2ccccc21)Cn1c2ccc(Cl)cc2c2cc(Cl)ccc21` (configuration not stated): in experiment [6], the AC50 was 6.08 µM (active). Further, the IC50 in the experiment on HEK293 was 10.2 µM (inactive). Moreover, the EC50 in experiment [5] is 2.73 µM (active).

Take `NC1CCC(Nc2nc(Cl)cc(-c3c[nH]c4ncccc34)n2)CC1` (configuration not stated): the Ki in [7] was 0.0126 µM (active); in [8], 0.00126 µM (active); in [9], 0.00631 µM (active); in experiment [10], 3.16 µM (active); in experiment [11], 0.000794 µM (active); in [12], > 6.31 µM (inactive). Moreover, the Ki in [13] is 0.00794 µM (active); in [14], > 2.51 µM (inactive); in experiment [15] it was 2 µM (active); in experiment [16], 0.0398 µM (active); in experiment [17] it was 0.2 µM (active); in [18] it was > 3.98 µM (inactive). For the same compound, the pKi in experiment [7] is reported as 7.9; in [8] it was 8.9; in [9], 8.2; in experiment [10], 5.5; in experiment [11], 9.1; in experiment [13], 8.1. The values for the negative logarithm of the Ki (pKi) in [15], in [16] and in experiment [17] were 5.7, 7.4 and 6.7, respectively.

For `O=C(O)C1CN(Cc2ccc(OCc3ccccc3)cc2Cl)C1`, the Ki was > 3.98 µM (inactive) in experiment [8]; > 3.16 µM (inactive) in experiment [9]; > 3.98 µM (inactive) in experiment [10]; > 2.51 µM (inactive) in [11]; > 6.31 µM (inactive) in experiment [12]; > 3.98 µM (inactive) in experiment [13]. Moreover, the Ki in [14] is > 2.51 µM (inactive); in [19], > 3.16 µM (inactive); in [15] it was > 3.98 µM (inactive); in experiment [16], > 3.16 µM (inactive); in [17], > 3.98 µM (inactive).
